Patent US9464215B2, “Use of a ketal as a solvent in adhesives and ketal-containing adhesive composition” (OXITENO S.A. INDÚSTRIA E COMÉRCIO, priority 2012, dated 2016)
Converted amounts (≈) assume the structure as drawn.

Assays:
rat [1] = details: cited from earlier work
[2] = Solubilization and gel formation of 2 wt% polychloroprene solution; assay type: physicochemical; details: 2% by weight of polymer, rest for 24 hours
Protocol: A polychloroprene solution was prepared in 2-methyl-2-ethyl-1,3-dioxolane at a concentration of 2% by weight of the polymer, which was allowed to rest for 24 hours. […] Gel formation usually takes place by using toluene or an aromatic hydrocarbon solvent, and was not expected in the case of oxygenated solvents, such as 2-methyl-2-ethyl-1,3-dioxolane.

[3] = IARC, NTP, OSHA, ACGIH; cited from earlier work
rabbit [4] = details: 24 hours of exposure; cited from earlier work
rabbit [5] = details: 24 hours of exposure; cited from earlier work; remark: listed apart in the source
rabbit [6] = details: cited from earlier work
rat [7] = details: 4 hours of exposure; cited from earlier work
Water solubility = assay type: physicochemical; details: heading: Water solubility

## CCC1(C)OCCO1 [2-methyl-2-ethyl-1,3-dioxolane]
Rat [1]
  LD50 (oral rat): 2,830 μL/kg
[2]
  Gel formation: formation of a gel was seen
[3]
  Carcinogenicity listing: not listed as carcinogenic
Rabbit [4]
  LCLo/24 H (skin rash - rabbit): 500 mg/24 H
Rabbit [5]
  LCLo/24H (eye irritation - rabbit): 500 mg/24 H
Rabbit [6]
  DL50 (dermal rabbit): 10 mL/kg
Rat [7]
  LCLo/4 H (inhalation rat): 4,000 ppm/4 H
Water solubility
  solubility: 3260 µg/mL (≈ 28.1 mM)
